Reference: PubChem BioAssay AID330 (DTP/NCI, 2004)
Values joined by “and” are separate entries in the source; they are usually repeats but may differ in a detail not shown here. Identical values can stand only once. Inconclusive results and toxic doses are left out. The calls were made as follows: active = survival T/C of 150% or more; inactive = T/C below 125% in these data.

Tested on: P388 leukemia ip, CD2F1 mice, survival T/C
Experiment: NCI In Vivo Anticancer Drug Screen. Data for tumor model P388 Leukemia (intraperitoneal) in CD2F1 (CDF1) mice
Conditions: endpoint: median survival time, higher = longer survival
Summary of the method: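 Mice carrying the transplanted tumor received test compound or vehicle. Survival was recorded in each group, and the value is the treated-group measurement divided by that of the vehicle-treated control group.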

[1] = dose: 100.0 mg/kg/injection, schedule: Q01DX005 (ip), vehicle: Klucel (hydroxypropylcellulose) (HPC)
[2] = dose: 200.0 mg/kg/injection, schedule: Q01DX005 (ip), vehicle: Klucel (hydroxypropylcellulose) (HPC)
[3] = dose: 50.0 mg/kg/injection, schedule: Q01DX005 (ip), vehicle: saline with Tween-80
[4] = dose: 100.0 mg/kg/injection, schedule: Q01DX005 (ip), vehicle: saline with Tween-80
[5] = dose: 200.0 mg/kg/injection, schedule: Q01DX005 (ip), vehicle: saline with Tween-80
[6] = dose: 1.25 mg/kg/injection, schedule: Q01DX009 (ip), vehicle: saline with Tween-80
[7] = dose: 2.5 mg/kg/injection, schedule: Q01DX009 (ip), vehicle: saline with Tween-80
[8] = dose: 20.0 mg/kg/injection, schedule: Q01DX009 (ip), vehicle: saline with Tween-80
[9] = dose: 25.0 mg/kg/injection, schedule: Q01DX009 (ip), vehicle: saline
[10] = dose: 50.0 mg/kg/injection, schedule: Q01DX005 (ip), vehicle: Klucel (hydroxypropylcellulose) (HPC)

Measured: T/C

CC1=N/C(=C\c2ccccc2)C(=O)N1c1ccccc1
inactive: [1] 98 % of control | [2] 104 % of control | dose: 400.0 mg/kg/injection, schedule: Q01DX005 (ip), vehicle: Klucel (hydroxypropylcellulose) (HPC) 105 % of control

C[Si](C)(C)Cn1cccc1
inactive: dose: 60.0 mg/kg/injection, schedule: Q01DX005 (ip), vehicle: saline with Tween-80 103 % of control | dose: 120.0 mg/kg/injection, schedule: Q01DX005 (ip), vehicle: saline with Tween-80 102 % of control | dose: 240.0 mg/kg/injection, schedule: Q01DX005 (ip), vehicle: saline with Tween-80 94 % of control

CCC1C=Cc2ccccc2NC1 (stereo not drawn)
inactive: [3] 100 % of control | [4] 94 % of control | [5] 98 % of control

CC(=O)Nc1cc2c(cc1Br)-c1ccccc1C2O (stereo not drawn)
inactive: dose: 0.63 mg/kg/injection, schedule: Q01DX009 (ip), vehicle: saline with Tween-80 100 % of control | [6] 109 % of control | [7] 109 % of control | dose: 5.0 mg/kg/injection, schedule: Q04DX003 (ip), vehicle: saline with Tween-80 90 % of control | dose: 10.0 mg/kg/injection, schedule: Q04DX003 (ip), vehicle: saline with Tween-80 104 % of control | [8] 90 % of control | dose: 20.0 mg/kg/injection, schedule: Q04DX003 (ip), vehicle: saline with Tween-80 100 % of control

Nc1cccc(C(=O)c2cccc(N)c2)c1
inactive: dose: 100.0 mg/kg/injection, schedule: Q04DX003 (ip), vehicle: saline with Tween-80 100 % of control | dose: 200.0 mg/kg/injection, schedule: Q04DX003 (ip), vehicle: saline with Tween-80 95 % of control | dose: 400.0 mg/kg/injection, schedule: Q04DX003 (ip), vehicle: saline with Tween-80 100 % of control

NCCNCCNCCNCCN (tested in a mixture with another compound)
inactive: [9] 118 % of control | dose: 50.0 mg/kg/injection, schedule: Q01DX009 (ip), vehicle: saline 118 % of control | dose: 100.0 mg/kg/injection, schedule: Q01DX009 (ip), vehicle: saline 100 % of control

CC(Br)CCc1ccccc1Br (stereo not drawn)
inactive: [10] 101 % of control | [1] 93 % of control | [2] 97 % of control

C=C(C)C1C/C=C(\C)CC/C=C(\C)CC/C=C(\C)CC1 (stereo not drawn)
inactive: dose: 18.75 mg/kg/injection, schedule: Q01DX009 (ip), vehicle: saline + Tween-80 + alcohol 93 % of control | dose: 37.5 mg/kg/injection, schedule: Q01DX009 (ip), vehicle: saline + Tween-80 + alcohol 101 % of control | dose: 75.0 mg/kg/injection, schedule: Q01DX009 (ip), vehicle: saline + Tween-80 + alcohol 102 % of control | dose: 150.0 mg/kg/injection, schedule: Q01DX009 (ip), vehicle: saline + Tween-80 + alcohol 99 % of control

Cn1c2ccccc2c2nnc(N/N=C/c3cccnc3)nc21
inactive: dose: 100.0 mg/kg/injection, schedule: Q04DX002 (ip), vehicle: saline with Tween-80 91 % of control | dose: 200.0 mg/kg/injection, schedule: Q04DX002 (ip), vehicle: saline with Tween-80 86 % of control and 90 % of control | dose: 400.0 mg/kg/injection, schedule: Q04DX002 (ip), vehicle: saline with Tween-80 99 % of control and 90 % of control and 95 % of control

O=C1C(C2(O)C(=O)Nc3ccccc32)CCCC1C1(O)C(=O)Nc2ccccc21 (stereo not drawn)
inactive: dose: 60.0 mg/kg/injection, schedule: Q01DX005 (ip), vehicle: Klucel (hydroxypropylcellulose) (HPC) 90 % of control | dose: 120.0 mg/kg/injection, schedule: Q01DX005 (ip), vehicle: Klucel (hydroxypropylcellulose) (HPC) 87 % of control | dose: 240.0 mg/kg/injection, schedule: Q01DX005 (ip), vehicle: Klucel (hydroxypropylcellulose) (HPC) 89 % of control

COc1ccc(CC(O)c2cc(OC)c(OC)c(OC)c2)cc1O (stereo not drawn)
inactive: dose: 2.5 mg/kg/injection, schedule: Q01DX009 (ip), vehicle: saline + alcohol 108 % of control | dose: 5.0 mg/kg/injection, schedule: Q01DX009 (ip), vehicle: saline + alcohol 118 % of control | dose: 10.0 mg/kg/injection, schedule: Q01DX009 (ip), vehicle: saline + alcohol 114 % of control | dose: 20.0 mg/kg/injection, schedule: Q01DX009 (ip), vehicle: saline + alcohol 101 % of control | dose: 22.5 mg/kg/injection, schedule: Q01DX009 (ip), vehicle: saline + Tween-80 + alcohol 108 % of control | dose: 45.0 mg/kg/injection, schedule: Q01DX009 (ip), vehicle: saline + Tween-80 + alcohol 114 % of control | dose: 90.0 mg/kg/injection, schedule: Q01DX009 (ip), vehicle: saline + Tween-80 + alcohol 107 % of control | dose: 180.0 mg/kg/injection, schedule: Q01DX009 (ip), vehicle: saline + Tween-80 + alcohol 123 % of control

N/C(=N\OC(=O)NC(Cl)=C(Cl)Cl)c1cc(C(F)(F)F)cc(C(F)(F)F)c1
inactive: [3] 102 % of control | [4] 102 % of control | [5] 100 % of control

COc1ccc2c(c1)c(CBr)c(C)c[n+]2[O-]
inactive: dose: 6.25 mg/kg/injection, schedule: Q01DX005 (ip), vehicle: Klucel (hydroxypropylcellulose) (HPC) 104 % of control | dose: 12.5 mg/kg/injection, schedule: Q01DX005 (ip), vehicle: Klucel (hydroxypropylcellulose) (HPC) 102 % of control | [10] 86 % of control

Cn1ncc(=O)c(Cl)c1Cl
inactive: [3] 95 % of control | [4] 101 % of control | [5] 102 % of control

Cn1c2c(c(=O)n(C)c1=O)CN(Cc1ccccc1)CN2
inactive: [3] 95 % of control | [4] 95 % of control | [5] 100 % of control

CC1(C)CC(C)(OC(=O)c2ccc(F)cc2)N=N1 (stereo not drawn)
inactive: dose: 12.5 mg/kg/injection, schedule: Q01DX009 (ip), vehicle: other 103 % of control | dose: 25.0 mg/kg/injection, schedule: Q01DX009 (ip), vehicle: other 113 % of control | dose: 50.0 mg/kg/injection, schedule: Q01DX009 (ip), vehicle: other 108 % of control | dose: 100.0 mg/kg/injection, schedule: Q01DX009 (ip), vehicle: other 113 % of control | dose: 200.0 mg/kg/injection, schedule: Q01DX009 (ip), vehicle: other 118 % of control

O=C(O)C(O)C(O)C(=O)O.O=C(O)C(O)C(O)C(=O)O.[O]=[V].[O]=[V] (stereo not drawn)
inactive: dose: 12.5 mg/kg/injection, schedule: Q01DX009 (ip), vehicle: saline 110 % of control | dose: 15.0 mg/kg/injection, schedule: Q01DX009 (ip), vehicle: saline 102 % of control | [9] 110 % of control | dose: 25.0 mg/kg/injection, schedule: Q04DX003 (ip), vehicle: saline sonified 100 % of control | dose: 30.0 mg/kg/injection, schedule: Q01DX009 (ip), vehicle: saline 106 % of control | dose: 50.0 mg/kg/injection, schedule: Q04DX003 (ip), vehicle: saline sonified 104 % of control

CS(C)=Nc1ccc([N+](=O)[O-])cc1
inactive: dose: 100.0 mg/kg/injection, schedule: Q01DX001 (ip), vehicle: Klucel (hydroxypropylcellulose) (HPC) 109 % of control | dose: 200.0 mg/kg/injection, schedule: Q01DX001 (ip), vehicle: Klucel (hydroxypropylcellulose) (HPC) 100 % of control

O=C(CBr)c1cccc([N+](=O)[O-])c1
inactive: dose: 6.25 mg/kg/injection, schedule: Q01DX009 (ip), vehicle: saline with Tween-80 101 % of control | dose: 12.5 mg/kg/injection, schedule: Q01DX009 (ip), vehicle: saline with Tween-80 100 % of control | dose: 25.0 mg/kg/injection, schedule: Q01DX009 (ip), vehicle: saline with Tween-80 109 % of control | dose: 50.0 mg/kg/injection, schedule: Q01DX009 (ip), vehicle: saline with Tween-80 100 % of control

C=C(C)C1C/C=C2/C(=O)OC(CC3(C)CC(=O)C(CC(=O)C1)O3)C2O (stereo not drawn)
inactive: dose: 4.0 mg/kg/injection, schedule: Q01DX009 (ip), vehicle: Klucel (hydroxypropylcellulose) (HPC) 101 % of control | dose: 8.0 mg/kg/injection, schedule: Q01DX009 (ip), vehicle: Klucel (hydroxypropylcellulose) (HPC) 101 % of control | dose: 16.0 mg/kg/injection, schedule: Q01DX009 (ip), vehicle: Klucel (hydroxypropylcellulose) (HPC) 104 % of control | dose: 32.0 mg/kg/injection, schedule: Q01DX009 (ip), vehicle: Klucel (hydroxypropylcellulose) (HPC) 101 % of control

C=C1C(=O)C23CC1CC(O)C2C12COC(O)C1C(C)(C)CCC2OC3=O (stereo not drawn)
inactive: [6] 108 % of control | [7] 99 % of control | dose: 5.0 mg/kg/injection, schedule: Q01DX009 (ip), vehicle: saline with Tween-80 102 % of control and 120 % of control | dose: 10.0 mg/kg/injection, schedule: Q01DX009 (ip), vehicle: saline with Tween-80 106 % of control and 115 % of control | [8] 116 % of control and 118 % of control | dose: 40.0 mg/kg/injection, schedule: Q01DX009 (ip), vehicle: saline with Tween-80 118 % of control and 124 % of control | dose: 80.0 mg/kg/injection, schedule: Q01DX009 (ip), vehicle: saline with Tween-80 89 % of control
